The nature of this data set: Solubility of polymorphs in water/acetonitrile mixed solvent (saturated solution, HPLC). The conditions noted are these: water/acetonitrile mixed solvent (water/acetonitrile volume ratio 0.25), 15° C., ordinary pressure. It counts as physicochemical. On the procedure:
A 50 ml four-neck flask was charged with 30 ml of a water/acetonitrile mixed solvent (water/acetonitrile volume ratio 0.25). After cooling the solvent to 5° C. with stirring, 5 g of each of polymorphs (I form, […] and […]) of N^2-(1(S)-ethoxycarbonyl-3-phenylpropyl)-N^6-trifluoroacetyl-L-lysine was added thereto, and the temperature was elevated to a predetermined temperature at a rate of 10° C./hour. After reaching the predetermined temperature, the solution was maintained at that temperature for about 1 hour. A sample of the resulting saturated solution was taken out, and the concentration (% by weight) of N^2-(1(S)-ethoxycarbonyl-3-phenylpropyl)-N^6-trifluoroacetyl-L-lysine was measured by HPLC analysis to determine the solubility at that temperature.
Turning to `CCOC(=O)[C@H](CCc1ccccc1)N[C@@H](CCCCNC(=O)C(F)(F)F)C(=O)O` [I form, N^2-(1(S)-ethoxycarbonyl-3-phenylpropyl)-N^6-trifluoroacetyl-L-lysine], the solubility result is “about 2.5 % by weight”. Consider `CCOC(=O)[C@H](CCc1ccccc1)N[C@@H](CCCCNC(=O)C(F)(F)F)C(=O)O` [II form, N^2-(1(S)-ethoxycarbonyl-3-phenylpropyl)-N^6-trifluoroacetyl-L-lysine], for which the solubility entry is “about 2.7 % by weight”.

With `CCOC(=O)[C@H](CCc1ccccc1)N[C@@H](CCCCNC(=O)C(F)(F)F)C(=O)O` [III form, N^2-(1(S)-ethoxycarbonyl-3-phenylpropyl)-N^6-trifluoroacetyl-L-lysine], the solubility result was “about 3.1 % by weight”.

Source of the values: patent publication US7253299B2, “Process for purifying n2-(1(s)-ethoxycarbonyl-3-phenylpropyl)-n6-thifluoroacetyl-l-lysine” (Kaneka Corporation, priority 2001, dated 2007).
